Laboratory results as given in patent US12459921B2, “Isoindoline compound, preparation method, pharmaceutical composition and use thereof” (SHANGHAI INSTITUTE OF MATERIA MEDICA, CHINESE ACADEMY OF …, priority 2018, dated 2025).

System: MM.1S cells
Test: Inhibitory effect on the proliferation of MM.1S, MTS cell viability test
Format: cell-based
Settings: Homo sapiens, MM1.S, 168 h, multiple myeloma MM.1S cells, 7 days incubation, read-out: Tumor cell inhibitory activity
Summary of the method: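 MM.1S cells (20,000/well, RPMI 1640 with 10% FBS) exposed to 5-fold compound dilutions at 0.2% DMSO for 7 days at 37° C, 5% CO2. MTS added for 3-4 h; OD490-OD690 gave inhibition versus DMSO, IC50 fitted, mean of three experiments.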

Structure (SMILES)	IC50
O=C1CCC(N2Cc3c(OCCCCNC(=O)N4CCC5(CC4)OCc4ccc(Cl)cc45)cccc3C2=O)C(=O)N1 (stereo not drawn) [Example 154, 6-chloro-N-(4-((2-(2,6-dioxopiperidine-3-)-1-oxoisoindoline-4-)-oxy-)butyl)-3H-spiro[isobenzofuran-1,4-piperidine]-1-carboxamide]	< 100 nM
O=C1CCC(N2Cc3c(OCCNC(=O)N4CCC5(CC4)OCc4ccc(Cl)cc45)cccc3C2=O)C(=O)N1 (stereo not drawn) [Example 155, 6-chloro-N-(2-((2-(2,6-dioxopiperidine-3-)-1-oxoisoindoline-4-)oxy)ethyl)-3H-spiro[isobenzofuran-1,4-piperidine]-1-carboxamide]	< 100 nM
O=C1CCC(N2Cc3c(CCCCCN4CCC5(CC4)OCc4ccc(F)cc45)cccc3C2=O)C(=O)N1 (stereo not drawn) [Example 156, 3-(4-(5-(6-fluoro-3H-spiro[isobenzofuran-1,4′-piperidine]-1′-)pentyl)-1-oxoisoindoline-2-)piperidine-2,6-dione]	< 100 nM
Cc1ccc2c(c1)C1(CCN(CCCCCc3cccc4c3CN(C3CCC(=O)NC3=O)C4=O)CC1)OC2 (stereo not drawn) [Example 157, 3-(4-(5-(6-methyl-3H-spiro[isobenzofuran-1,4′-piperidine]-1-)pentyl)-1-oxoisoindoline-2-)piperidine-2,6-dione]	< 100 nM
Cc1ccc(NC(=O)CCCCOc2cccc3c2CN(C2CCC(=O)NC2=O)C3=O)cc1Cl (stereo not drawn) [Example 159, N-(3-chloro-4-methylphenyl)-5-((2-(2,6-dioxopiperidine-3-)-1-oxoisoindoline-4-)oxy)valeramide]	< 100 nM
Cc1ccc(NC(=O)NCCOc2cccc3c2CN(C2CCC(=O)NC2=O)C3=O)cc1Cl (stereo not drawn) [Example 160, 1-(3-chloro-4-methylphenyl)-3-(2-((2-(2,6-dioxopiperidine-3-)-1-oxoisoindoline-4-)oxy)ethyl)ure]	< 100 nM
Cc1ccc(NC(=O)NCCCCOc2cccc3c2CN(C2CCC(=O)NC2=O)C3=O)cc1Cl (stereo not drawn) [Example 162, 1-(3-chloro-4-methylphenyl)-3-(4-((2-(2,6-dioxopiperidine-3-)-1-oxoisoindoline-4-)oxy)butyl)urea]	< 100 nM
O=C1CCC(N2Cc3c(OCCNC(=O)Nc4ccc(Cl)c(Cl)c4)cccc3C2=O)C(=O)N1 (stereo not drawn) [Example 163]	100 to 1000 nM
CC(=O)N[C@@H](CCCc1cccc2c1CN(C1CCC(=O)NC1=O)C2=O)C(=O)N[C@H](C)c1ccccc1 (stereo partly drawn) [Example 169, (2S)-2-acetylamino-5-(2-(2,6-dioxopiperidine-3-)-1-oxoisoindoline-4-)-N—((R)-1-phenethyl)pentanoamide]	< 100 nM
CC(=O)N[C@@H](CCCc1cccc2c1CN(C1CCC(=O)NC1=O)C2=O)C(=O)N[C@@H](C)c1ccccc1 (stereo partly drawn) [Example 171, (2S)-2-acetylamino-5-(2-(2,6-dioxopiperidine-3-)-1-oxoisoindoline-4-)-N—((S)-1-phenethyl)pentanamide]	1000 to 20000 nM
CC(=O)N[C@@H](CCCc1cccc2c1CN(C1CCC(=O)NC1=O)C2=O)C(=O)NCc1ccc(F)cc1F (stereo partly drawn) [Example 178, (2S)-2-acetylamino-N-(2,4-difluorobenzyl)-5-(2-(2,6-dioxopiperidine-3-)-1-oxoisoindoline-4-)oxoisoindoline]	100 to 1000 nM
COc1ccc(CNC(=O)[C@H](CCCc2cccc3c2CN(C2CCC(=O)NC2=O)C3=O)NC(C)=O)c(OC)c1 (stereo partly drawn) [Example 180, (2S)-2-acetylamino-N-(2,4-dimethoxybenzyl)-5-(2-(2,6-dipiperidine-3-)-1-oxoisoindoline-4-)pentanamide]	100 to 1000 nM
CC(=O)N[C@@H](CCCc1cccc2c1CN(C1CCC(=O)NC1=O)C2=O)C(=O)NC(c1ccccc1)c1ccccc1 (stereo partly drawn) [Example 181, (2S)-2-acetylamino-N-benzhydryl-5-(2-(2,6-dioxopiperidine-3-)-1-oxoisoindoline-4-) pentanamide]	100 to 1000 nM
Cc1ccc(NC(=O)[C@H](CCCc2cccc3c2CN(C2CCC(=O)NC2=O)C3=O)NC(=O)C(C)C)cc1Cl (stereo partly drawn) [Example 183, (2S)—N-(3-chloro-4-methylphenyl)-5-(2-(2,6-dioxopiperidine-3-)-1-oxoisoindoline-4-)-2-isobutyrylaminopentanamide]	< 100 nM
CC(=O)N[C@@H](CCCc1cccc2c1CN(C1CCC(=O)NC1=O)C2=O)C(=O)NC(C)(C)c1ccccc1 (stereo partly drawn) [Example 188, (2S)-2-acetylamino-5-(2-(2,6-dioxopiperidine-3-)-1-oxoisoindoline-4-)-N-(2-phenylpropyl-2-)pentanamide]	100 to 1000 nM
Cc1ccc(NC(=O)[C@H](CCCc2cccc3c2CN(C2CCC(=O)NC2=O)C3=O)NC(=O)CCCCCN)cc1Cl (stereo partly drawn) [Example 189, 6-amino-N-((2S)-1-((3-chloro-4-methylphenyl)amino)-5-(2-(2,6-dioxopiperidine-3-)-1-oxoisoindoline-4-)-1-oxopentyl-2-)hexanamide]	100 to 1000 nM
CC(=O)N[C@@H](CCCc1cccc2c1CN(C1CCC(=O)NC1=O)C2=O)C(=O)NCc1ccc(OCCN(C)C)cc1 (stereo partly drawn) [Example 190]	1000 to 20000 nM
Cc1ccc(NC(=O)[C@H](CCCc2cccc3c2CN(C2CCC(=O)NC2=O)C3=O)NC(=O)C2CCNCC2)cc1Cl (stereo partly drawn) [Example 191, N-((2S)-1-((3-chloro-4-methylphenyl)amino)-5-(2-(2,6-dioxopiperidine-3-) -1-oxoisoindoline-4-)-1-oxopentyl-2-)piperidine-4-carboxamide]	100 to 1000 nM
CC(=O)N[C@@H](CCCc1cccc2c1CN(C1CCC(=O)NC1=O)C2=O)C(=O)NCc1ccc(Oc2ccccc2)cc1 (stereo partly drawn) [Example 192, (2S)-2-acetylamino-5-(2-(2,6-dioxopiperidine-3-)-1-oxoisoindoline-4-)-N-(4-phenoxybenzyl)pentanamide]	100 to 1000 nM
Cc1ccc(NC(=O)[C@H](CCCc2cccc3c2CN(C2CCC(=O)NC2=O)C3=O)NC(=O)CCCCCO)cc1Cl (stereo partly drawn) [Example 193, N-((2S)-1-(3-chloro-4-methylaniline)-5-(2-(2,6-dioxopiperidine-3-)-1-oxoisoindoline-4-)-1-oxopentyl-2-)-6-hydroxyhexanamide]	< 100 nM

More lines, now with the values ahead:

IC50	Structure (SMILES)
< 100 nM	O=C1CCC(N2Cc3c(CCC[C@H](NC(=O)C4CC4)C(=O)NCc4ccccc4)cccc3C2=O)C(=O)N1 (stereo partly drawn) [Example 165, N-((2S)-1-(benzylamino)-5-(2-(2,6-dioxopiperidine-3-)-1-oxoisoindoline-4-)-1-oxopentyl-2-)cyclopropylformamide]
1000 to 20000 nM	CC(=O)N[C@@H](CCCc1cccc2c1CN(C1CCC(=O)NC1=O)C2=O)C(=O)NC(C)(C)C (stereo partly drawn) [Example 168, (2S)-2-acetylamino-N-tert-butyl-(2-(2,6-dioxopiperidine-3-)-1-oxoisoindoline-4-)pentanamide]
> 20000 nM	N[C@@H](CCCc1cccc2c1CN(C1CCC(=O)NC1=O)C2=O)C(=O)Nc1ccccc1-c1ccccn1 (stereo partly drawn) [Example 170, (2S)-2-amino-5-(2-(2,6-dioxopiperidine-3-)-1-oxoisoindoline-4-)-N-(2-(pyridine-2-)phenyl)pentanamide]
> 20000 nM	N[C@@H](CCCc1cccc2c1CN(C1CCC(=O)NC1=O)C2=O)C(=O)Nc1ccccc1-c1cccnc1 (stereo partly drawn) [Example 172, (2S)-2-amino-5-(2-(2,6-dioxopiperidine-3-)-1-oxoisoindoline-4-)-N-(2-(pyridine-3-)phenyl)pentaneamide]
> 20000 nM	N[C@@H](CCCc1cccc2c1CN(C1CCC(=O)NC1=O)C2=O)C(=O)NC12CC3CC(CC(C3)C1)C2 (stereo partly drawn) [Example 174, (2S)—N-((3R,5R,7R)-adamantane-1-)-2-amino-5-(2-(2,6-dioxopiperidine-3-)-1-oxoisoindoline-4-)pentanamide]
100 to 1000 nM	CC(=O)N[C@@H](CCCc1cccc2c1CN(C1CCC(=O)NC1=O)C2=O)C(=O)N[C@H]1CCc2ccccc21 (stereo partly drawn) [Example 175]
> 20000 nM	N[C@@H](CCCc1cccc2c1CN(C1CCC(=O)NC1=O)C2=O)C(=O)NC1C2CC3CC(C2)CC1C3 (stereo partly drawn) [Example 176, (2S)—N-((1S,3S,5S,7 S)-adamantane-2-)-2-amino-5-(2-(2,6-dioxopiperidine-3-)-1-oxoisoindoline-4-)pentanamide]
100 to 1000 nM	CC(=O)N[C@@H](CCCc1cccc2c1CN(C1CCC(=O)NC1=O)C2=O)C(=O)N[C@@H]1CCc2ccccc21 (stereo partly drawn) [Example 177, (2S)-2-acetylamino-N—((R)-2,3-dihydro-1H-indene-1-)-5-(2-(2,6-dioxopiperidine-3-)-1-oxoisoindoline-4-)pentanamide]
< 100 nM	CC(=O)N[C@@H](CCCc1cccc2c1CN(C1CCC(=O)NC1=O)C2=O)C(=O)N[C@H]1CCCc2ccccc21 (stereo partly drawn) [Example 179, (2S)-2-acetylamino-5-(2-(2,6-dioxopiperidine-3-)-1-oxoisoindoline-4-)-N—((S)-1,2,3,4-tetrahydronaphthyl-1-)pentanamide]
100 to 1000 nM	CC(=O)N[C@@H](CCCc1cccc2c1CN(C1CCC(=O)NC1=O)C2=O)C(=O)NCc1cccc(Cl)c1 (stereo partly drawn) [Example 184, (2S)-2-acetylamino-N-(3-chlorobenzyl)-5-(2-(2,6-dioxopiperidine-3-)-1-oxoisoindoline-4-)pentanamide]
< 100 nM	Cc1ccc(NC(=O)[C@H](CCCc2cccc3c2CN(C2CCC(=O)NC2=O)C3=O)NC(=O)C2CC2)cc1Cl (stereo partly drawn) [Example 185, N-((2S)-1-((3-chloro-4-methylphenyl)amino)-5-(2-(2,6-dioxopiperidine-3-)-1-oxoisoindoline-4-)-1-oxopentyl-2-)cyclopropylformamide]
100 to 1000 nM	CC(=O)N[C@@H](CCCc1cccc2c1CN(C1CCC(=O)NC1=O)C2=O)C(=O)NCc1ccc(N2CCCC2)cc1 (stereo partly drawn) [Example 186, (2S)-2-acetylamino-5-(2-(2,6-dioxopiperidine-3-)-1-oxoisoindoline-4-)-N-(4-(pyrrolidine-1-)benzyl)pentanamide]
< 100 nM	Cc1ccc(NC(=O)[C@H](CCCc2cccc3c2CN(C2CCC(=O)NC2=O)C3=O)NC(=O)C2CCC2)cc1Cl (stereo partly drawn) [Example 187, N-((2S)-1-((3-chloro-4-methylphenyl)amino)-5-(2-(2,6-dioxopiperidine-3-)-1-oxoisoindoline-4-)-1-oxopentyl-2-)cyclobutylcarboxamide]
